Earlier results, collected in publication PMC4627231, “Targeting the sugar metabolism of tumors with a first-in-class 6-phosphofructo-2-kinase (PFKFB4) inhibitor” (Oncotarget, 2015).

System: breast cancer patients
Parameters: method as in PMID 25524798
Conditions: cited from earlier work

## CC(=O)c1c(C)c2cnc(Nc3ccc(N4CCNCC4)cn3)nc2n(C2CCCC2)c1=O [palbociclib]
  progression-free survival: double
  toxicity: without causing excessive toxicity
